The results in this text go back to PubChem BioAssay AID330 (DTP/NCI, 2004).

“And” between values parts separate entries of the source, which are not always exact repeats. Equal entries are not always repeated. Toxic doses and inconclusive results are not listed.

This test deals with P388 leukemia ip, CD2F1 mice, survival T/C. In words: NCI In Vivo Anticancer Drug Screen. Data for tumor model P388 Leukemia (intraperitoneal) in CD2F1 (CDF1) mice. The conditions noted are these: endpoint: median survival time, higher = longer survival. In short, it runs like this:
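Mice carrying the transplanted tumor received test compound or vehicle. Survival was recorded in each group, and the value is the treated-group measurement divided by that of the vehicle-treated control group.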

Setting [1] is: dose: 50.0 mg/kg/injection, schedule: Q01DX009 (ip), vehicle: saline.
Setting [2] is: dose: 100.0 mg/kg/injection, schedule: Q01DX009 (ip), vehicle: saline.
[3] abbreviates: dose: 200.0 mg/kg/injection, schedule: Q01DX009 (ip), vehicle: saline.
Where [4] appears, read: dose: 50.0 mg/kg/injection, schedule: Q01DX009 (ip), vehicle: saline with Tween-80.
Setting [5] is: dose: 100.0 mg/kg/injection, schedule: Q04DX003 (ip), vehicle: saline with Tween-80.
[6] abbreviates: dose: 200.0 mg/kg/injection, schedule: Q04DX003 (ip), vehicle: saline with Tween-80.

For `C[C@]12C=CC(=O)C=C1CC[C@@H]1[C@@H]2C(=O)C[C@@]2(C)[C@H]1CC[C@]2(O)C(=O)CO`, the T/C is 106 % of control (dose: 25.0 mg/kg/injection, schedule: Q01DX009 (ip), vehicle: saline); 100 % of control and 95 % of control (dose: 30.0 mg/kg/injection, schedule: Q04DX002 (sc), vehicle: Klucel (hydroxypropylcellulose) (HPC)); 100 % of control (dose: 44.0 mg/kg/injection, schedule: Q04DX002 (sc), vehicle: Klucel (hydroxypropylcellulose) (HPC)); 104 % of control (dose: 45.0 mg/kg/injection, schedule: Q04DX002 (sc), vehicle: Klucel (hydroxypropylcellulose) (HPC)); 93 % of control (dose: 50.0 mg/kg/injection, schedule: Q01DX001 (oral), vehicle: saline); 111 % of control (dose: 50.0 mg/kg/injection, schedule: Q01DX005 (sc), vehicle: Klucel (hydroxypropylcellulose) (HPC)). For the same compound, the T/C reads like this: under setting [1], 106 % of control; (dose: 50.0 mg/kg/injection, schedule: Q01DX009 (oral), vehicle: saline) 100 % of control; (dose: 67.0 mg/kg/injection, schedule: Q04DX002 (sc), vehicle: Klucel (hydroxypropylcellulose) (HPC)) 100 % of control and 104 % of control; (dose: 100.0 mg/kg/injection, schedule: Q01DX001 (oral), vehicle: saline) 100 % of control; (dose: 100.0 mg/kg/injection, schedule: Q01DX005 (sc), vehicle: Klucel (hydroxypropylcellulose) (HPC)) 111 % of control; under setting [2], 106 % of control. Also, the T/C is 114 % of control (dose: 100.0 mg/kg/injection, schedule: Q01DX009 (oral), vehicle: saline); 98 % of control and 107 % of control (dose: 100.0 mg/kg/injection, schedule: Q04DX002 (sc), vehicle: Klucel (hydroxypropylcellulose) (HPC)); 98 % of control and 95 % of control (dose: 125.0 mg/kg/injection, schedule: Q01DX001 (ip), vehicle: steriod suspending solution); 100 % of control (dose: 133.0 mg/kg/injection, schedule: Q01DX001 (sc), vehicle: Klucel (hydroxypropylcellulose) (HPC)); 100 % of control (dose: 200.0 mg/kg/injection, schedule: Q01DX001 (oral), vehicle: saline); 100 % of control (dose: 200.0 mg/kg/injection, schedule: Q01DX001 (sc), vehicle: Klucel (hydroxypropylcellulose) (HPC)). Further, the T/C by setting is: (dose: 200.0 mg/kg/injection, schedule: Q01DX005 (sc), vehicle: Klucel (hydroxypropylcellulose) (HPC)) 115 % of control; under setting [3], 106 % of control; (dose: 200.0 mg/kg/injection, schedule: Q01DX009 (oral), vehicle: saline) 100 % of control; (dose: 250.0 mg/kg/injection, schedule: Q01DX001 (ip), vehicle: steriod suspending solution) 91 % of control and 95 % of control; (dose: 300.0 mg/kg/injection, schedule: Q01DX001 (sc), vehicle: Klucel (hydroxypropylcellulose) (HPC)) 107 % of control; (dose: 400.0 mg/kg/injection, schedule: Q01DX001 (oral), vehicle: saline) 87 % of control. Besides, the T/C reads like this: (dose: 400.0 mg/kg/injection, schedule: Q01DX005 (sc), vehicle: Klucel (hydroxypropylcellulose) (HPC)) 115 % of control; (dose: 400.0 mg/kg/injection, schedule: Q01DX009 (ip), vehicle: saline) 106 % of control; (dose: 400.0 mg/kg/injection, schedule: Q01DX009 (oral), vehicle: saline) 114 % of control; (dose: 450.0 mg/kg/injection, schedule: Q01DX001 (sc), vehicle: Klucel (hydroxypropylcellulose) (HPC)) 108 % of control; (dose: 500.0 mg/kg/injection, schedule: Q01DX001 (ip), vehicle: steriod suspending solution) 91 % of control and 94 % of control; (dose: 800.0 mg/kg/injection, schedule: Q01DX001 (oral), vehicle: saline) 100 % of control. In addition, the T/C was 108 % of control (dose: 800.0 mg/kg/injection, schedule: Q01DX005 (ip), vehicle: Klucel (hydroxypropylcellulose) (HPC)); 113 % of control (dose: 800.0 mg/kg/injection, schedule: Q01DX005 (sc), vehicle: Klucel (hydroxypropylcellulose) (HPC)); 107 % of control (dose: 800.0 mg/kg/injection, schedule: Q01DX009 (oral), vehicle: saline); 34 % of control (dose: 1000.0 mg/kg/injection, schedule: Q01DX001 (ip), vehicle: steriod suspending solution); 116 % of control (dose: 1600.0 mg/kg/injection, schedule: Q01DX005 (ip), vehicle: Klucel (hydroxypropylcellulose) (HPC)); 100 % of control (dose: 1600.0 mg/kg/injection, schedule: Q01DX005 (sc), vehicle: Klucel (hydroxypropylcellulose) (HPC)). The T/C (dose: 6400.0 mg/kg/injection, schedule: Q01DX005 (sc), vehicle: Klucel (hydroxypropylcellulose) (HPC)) is 102 % of control.
For the compound `C=CC(=O)NCNC(=O)CCBr`, the T/C (dose: 25.0 mg/kg/injection, schedule: Q04DX003 (ip), vehicle: saline with Tween-80) is 109 % of control; the T/C under setting [4] is 186 % of control; the T/C under setting [5] was 150 % of control; the T/C under setting [6] was 159 % of control and 190 % of control; the T/C (dose: 300.0 mg/kg/injection, schedule: Q04DX003 (ip), vehicle: saline with Tween-80) was 172 % of control.
On to `COC(=O)c1cc2cc3c(c(O)c2c(=O)o1)OC1(Cc2c(O)c4c(c(O)c2O1)C(=O)C(OC)CC4=O)CC3O` (configuration not stated), for which the T/C reads like this: (dose: 12.5 mg/kg/injection, schedule: Q01DX009 (ip), vehicle: saline with Tween-80) 93 % of control; (dose: 25.0 mg/kg/injection, schedule: Q01DX009 (ip), vehicle: saline with Tween-80) 100 % of control; under setting [4], 116 % of control.
For the compound `CC(=N/NC(=S)NCC(C)C)/C(C)=N\Nc1ccc(Cl)cc1`, the T/C runs as follows: under setting [1], 97 % of control; under setting [2], 106 % of control; under setting [3], 99 % of control.
Turning to `O=C1CCN(Cc2ccccc2)C(=O)N1`, the T/C runs as follows: under setting [4], 100 % of control; (dose: 100.0 mg/kg/injection, schedule: Q01DX009 (ip), vehicle: saline with Tween-80) 105 % of control; (dose: 200.0 mg/kg/injection, schedule: Q01DX009 (ip), vehicle: saline with Tween-80) 100 % of control.
As to `Cc1cccc(Nc2c3c(nc4ccccc24)CCCCC3)c1`, the T/C is 98 % of control (dose: 60.0 mg/kg/injection, schedule: Q01DX005 (ip), vehicle: saline with Tween-80); 90 % of control (dose: 120.0 mg/kg/injection, schedule: Q01DX005 (ip), vehicle: saline with Tween-80); 91 % of control (dose: 240.0 mg/kg/injection, schedule: Q01DX005 (ip), vehicle: saline with Tween-80).
Consider `CCCCCCC(O)CCCCCC`, for which the T/C reads like this: (dose: 100.0 mg/kg/injection, schedule: Q04DX003 (ip), vehicle: other) 104 % of control; (dose: 200.0 mg/kg/injection, schedule: Q04DX003 (ip), vehicle: other) 109 % of control; (dose: 400.0 mg/kg/injection, schedule: Q04DX003 (ip), vehicle: other) 100 % of control.
In the case of `CN(C)c1ccc(C2OC(=N)C(=S)N2C)cc1` (configuration not stated), the T/C is, setting by setting: (dose: 60.0 mg/kg/injection, schedule: Q01DX005 (ip), vehicle: Klucel (hydroxypropylcellulose) (HPC)) 112 % of control; (dose: 120.0 mg/kg/injection, schedule: Q01DX005 (ip), vehicle: Klucel (hydroxypropylcellulose) (HPC)) 109 % of control; (dose: 240.0 mg/kg/injection, schedule: Q01DX005 (ip), vehicle: Klucel (hydroxypropylcellulose) (HPC)) 109 % of control.
Take `O=C1C=C[C@]2(C(=O)O)[C@@H]3C=C[C@@H](CC3)[C@H]12`: the T/C is 96 % of control (dose: 100.0 mg/kg/injection, schedule: Q04DX003 (ip), vehicle: Klucel (hydroxypropylcellulose) (HPC)); 100 % of control (dose: 200.0 mg/kg/injection, schedule: Q04DX003 (ip), vehicle: Klucel (hydroxypropylcellulose) (HPC)); 90 % of control (dose: 400.0 mg/kg/injection, schedule: Q04DX003 (ip), vehicle: Klucel (hydroxypropylcellulose) (HPC)).
With `C[CH2][Sn]([Cl])([CH2]C)[c]1cc[c]([Sn]([Cl])([CH2]C)[CH2]C)cc1`, the T/C (dose: 0.02 mg/kg/injection, schedule: Q01DX005 (ip), vehicle: Klucel (hydroxypropylcellulose) (HPC)) was 118 % of control.
In the case of `CC1(C)N=C(N)N=C(N)N1c1ccc(OCCOc2ccc(S(=O)(=O)F)cc2)c(Cl)c1`, the T/C is 159 % of control (dose: 12.5 mg/kg/injection, schedule: Q04DX003 (ip), vehicle: saline); 181 % of control and 185 % of control (dose: 25.0 mg/kg/injection, schedule: Q04DX003 (ip), vehicle: saline); 181 % of control and 185 % of control (dose: 50.0 mg/kg/injection, schedule: Q04DX003 (ip), vehicle: saline); 175 % of control under setting [5]; 190 % of control and 200 % of control (dose: 100.0 mg/kg/injection, schedule: Q04DX003 (ip), vehicle: saline); 162 % of control (dose: 132.0 mg/kg/injection, schedule: Q04DX003 (ip), vehicle: saline with Tween-80). The T/C is 185 % of control under setting [6] and 109 % of control (dose: 200.0 mg/kg/injection, schedule: Q04DX003 (ip), vehicle: saline).
